Measurements from patent US20030144335A1, “Preventive or remedial agent for allergic disease and medical water-based liquid preparation, eye drop, and nasal drop” (priority 2001, published 2003).

Test system: experimental allergic conjunctivitis model
Assay: Experimental allergic conjunctivitis model (dye leakage in palpebral conjunctiva of passively sensitized guinea pigs)
Type: in vivo, guinea pig
Settings: at each concentration (0.01%, 0.1%, 1%); dose relationship confirmed
Procedure: In the test, Hartley male guinea pigs (each group consisting of 8 guinea pigs) at age 6 weeks were used.
Antiserum made by the following method was used: According to the method of Levine et al (J.Immunol.,106,29-33(1971)), the guinea pigs were sensitized with 4 times-administration of physiological saline 1 ml containing 10 μg of ovalbumin (hereafter called “OA”) and 5 mg of aluminum hydroxide via the peritoneal cavity at intervals of 2 weeks. 1 week after the final sensitization, blood was sampled from the hind leg, and left at room temperature for 30 minutes. The blood was then left at 4° C. for 4-5 hours, and serum was then collected by centrifugation at 1680×9.8 m/s^2 g for 15 minutes. The serum obtained was frozen and stored at −80° C.
20 μl/site of Anti OA guinea pig serum (64 antibody titer in PCA (passive cutaneous anaphylaxis reaction)) was diluted with an equal amount of physiological saline. 20 μl/site of the solution was injected intradermally in binocular palpebral conjunctiva of the guinea pig under ether anesthesia. Thus, passive sensitization was carried out. […]
Then, 8 ml of 0.6 mol/ml of liquid mixture of phosphoric acid and acetone(5 to 13) was added and shaken; thereafter, the mixture was stirred using a homogenizer, and centrifuged at 1680×9.8/s^2 for 15 minutes. The leakage pigment quantity was colorimetered at 620 nm using a spectrophotometer. […]

Compound: CCS(=O)(=O)CCn1c([N+](=O)[O-])cnc1C [tinidazole, 1-(2-ethylsulfonyl)ethyl-2-methyl-5-nitro-1H-imidazole]
- inhibitory effect on dye leakage (allergic conjunctivitis): significant inhibitory effect
